Source: patent publication US11517577B2, “Fluorinated bile acid derivatives” (NZP UK LIMITED, priority 2018, dated 2022)
Read-outs that look alike come from different tables or passages of the source.

Key:
[1] = tested on: TGFβ1 expression in HepG2 cells; experiment: qPCR of TGFβ1 expression in HepG2 cells; assay type: cell-based, human; conditions: HepG2, 24 hours
Procedure: (§1) Compound 2 and OCA were also tested in the human hepatocellular carcinoma cell line, HepG2.
(§2) Testing in Huh7 cells and HepG2 cells was also carried out for Compound 14 in the same way as for Compound 2.
(§3) Total RNA was extracted using the RNAQUEOUS™ Total RNA Isolation kit (Ambion) and all reagents were provided in the kit or prepared according to manufacturer's instructions. For cultured cells, the medium was removed and cells were washed with 1×PBS to remove cellular debris and residual medium. Total RNA was extracted from fresh cells. For 1×10^6 cells, 350 μl lysis buffer was added directly to the well and cells were harvested by scraping with a pipette tip. […]
(§4) The ready-to-use reaction mastermix, ITAQ™ Universal SYBR® Green Supermix (Biorad) was used for all qPCR reactions. […] Melting curve analysis was performed straight after each run by increasing the temperature from 60° C. to 95° C. in 0.3° C. increments, and measuring fluorescence dissociation.
(§5) To quantify gene expression, the baseline-corrected Ct value was determined automatically by the qPCR system software (Applied Biosystems). Relative changes in gene expression were determined by the Livak, or ΔΔCt, method whereby the Ct values of target genes were normalised to Ct value of the reference gene, for both the samples treated with vehicle/untreated samples (control) and the samples treated with compound (test samples). […]

TGR5 (GPBAR1) receptor = target: T1, TGR5 (GPBAR1) receptor (Homo sapiens, UniProt Q8TDU6); experiment: HITHUNTER cAMP assay, agonist mode, TGR5 receptor; conditions: for Emax: read-out: Max Response; for agonist activity at the TGR5 receptor: statement in words on Table 2
T1 sequence (Q8TDU6 1-330): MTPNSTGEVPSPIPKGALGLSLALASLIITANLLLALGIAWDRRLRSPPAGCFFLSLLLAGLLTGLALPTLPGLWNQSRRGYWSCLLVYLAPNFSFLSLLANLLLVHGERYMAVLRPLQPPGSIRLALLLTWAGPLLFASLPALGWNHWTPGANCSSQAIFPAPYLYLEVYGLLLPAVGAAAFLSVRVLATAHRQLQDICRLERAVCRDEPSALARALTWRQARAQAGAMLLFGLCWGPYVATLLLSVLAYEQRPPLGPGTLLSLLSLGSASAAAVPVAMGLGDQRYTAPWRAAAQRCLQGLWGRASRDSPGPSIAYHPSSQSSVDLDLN
Procedure: 1. cAMP Hunter cell lines were expanded from freezer stocks according to standard procedures.
Cells were seeded in a total volume of 20 μL into white walled, 384-well microplates and incubated at 37° C. for the appropriate time prior to testing.
For agonist determination, cells were incubated with sample to induce response.
Media was aspirated from cells and replaced with 15 μL 2:1 HBSS/10 mM Hepes:cAMP XS+ Ab reagent.
Intermediate dilution of sample stocks was performed to generate 4× sample in assay buffer.
5 μL of 4× sample was added to cells and incubated at 37° C. or room temperature for 30 or 60 minutes. Vehicle concentration was 1%.
After appropriate compound incubation, assay signal was generated through incubation with 20 μL cAMP XS+ ED/CL lysis cocktail for one hour followed by incubation with 20 μL cAMP XS+ EA reagent for three hours at room temperature.
Microplates were read following signal generation with a PerkinElmer ENVISION™ instrument for chemiluminescent signal detection.
Compound activity was analyzed using CBIS data analysis suite (ChemInnovation, CA).
For Gs agonist mode assays, percentage activity is calculated using the following formula, where RLU is an abbreviation for relative light units:

[2] = tested on: SHP expression in Huh7 cells; experiment: qPCR of SHP (NR0B2) expression in Huh7 cells; assay type: cell-based, human; conditions: Huh7, 24 hours
Procedure: (§6) To assess specific changes in gene expression in response to the test compounds, precise quantification and analysis by quantitative real-time PCR (qPCR) was carried out. Mammalian tissue culture experiments involved seeding Hepatocellular carcinoma, (Huh7) cells, in 6 well plates at a concentration of 1×10^6 cells/well and incubating for 24 hours at 37° C. to allow attachment.
as §2
as §3, with “tip. Lysed cells were combined with an equal volume of 64% ethanol and mixed thoroughly by pipetting. The ethanol-lysate mix was transferred to a column and spun at 12,000×G for 1 minute and flow through discarded.” for “tip.”
as §4
To quantify gene expression, the baseline-corrected Ct value was determined automatically by the qPCR system software (Applied Biosystems). Relative changes in gene expression were determined by the Livak, or ΔΔCt, method whereby the Ct values of target genes were normalised to Ct value of the reference gene, for both the samples treated with vehicle/untreated samples (control) and the samples treated with compound (test samples). […] And finally, the expression ratio was calculated using the equation 2^−ΔΔC^t. […]

[3] = tested on: CYP7A1 expression in HepG2 cells; experiment: qPCR of CYP7A1 expression in HepG2 cells; assay type: cell-based, human; conditions: HepG2, 24 hours
Procedure: as §1, §2, §3, §4, §5

[4] = Xiao et al., 2017; cited from earlier work
[5] = target: T2, Human Farnesoid X Receptor (NR1H4, FXR) (Homo sapiens, UniProt Q96RI1); experiment: FXR reporter assay, EC50 and efficacy (Indigo Biosciences luciferase reporter cells); assay type: cell-based; conditions: for Efficacy: maximum point on the dose response curve, GW4064 designated as 100%
T2 sequence (Q96RI1 1-486): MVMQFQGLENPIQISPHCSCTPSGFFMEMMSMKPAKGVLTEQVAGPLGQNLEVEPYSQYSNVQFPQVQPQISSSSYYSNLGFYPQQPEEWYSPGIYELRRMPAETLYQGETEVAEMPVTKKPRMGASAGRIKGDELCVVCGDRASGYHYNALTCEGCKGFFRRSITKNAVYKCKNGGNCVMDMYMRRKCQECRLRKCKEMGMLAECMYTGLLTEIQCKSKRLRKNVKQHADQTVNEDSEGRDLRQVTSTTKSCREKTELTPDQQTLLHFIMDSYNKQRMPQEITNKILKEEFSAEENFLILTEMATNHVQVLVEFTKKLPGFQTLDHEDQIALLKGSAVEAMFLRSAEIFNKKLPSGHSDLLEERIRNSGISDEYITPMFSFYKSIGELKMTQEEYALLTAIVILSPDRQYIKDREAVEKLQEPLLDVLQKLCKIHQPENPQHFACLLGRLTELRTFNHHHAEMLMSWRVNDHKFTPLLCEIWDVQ
Procedure: The compounds of the invention were assayed for agonist activity at the FXR receptor.
Dose-response assays were performed as described in the technical manual of the Human Farnesoid X Receptor (NR1H4, FXR) Reporter Assay System (Indigo Biosciences Human Farnesoid X Receptor (NR1H4, FXR) Reporter Assay System, Technical Manual (version 7.1b), at the World Wide Web (www)indiqobiosciences.com).
FXR reporter cells consisting of an FXR-responsive promoter gene functionally linked to the luciferase gene were defrosted and seeded into a 96-well plate and these cells were immediately dosed with the test compounds at different concentrations (10-0.05 μM) according to the manufacturer's protocol. […] Following this, the induction of luciferase activity, which is the measure of the agonist activity, was quantified by using luminometer (TECAN) according to the manufacturer's protocol.

[6] = tested on: OSTα expression in Huh7 cells; experiment: qPCR of OSTα expression in Huh7 cells; assay type: cell-based, human; conditions: Huh7, 24 hours
Procedure: as §6, §2
Total RNA was extracted using the RNAQUEOUS™ Total RNA Isolation kit (Ambion) and all reagents were provided in the kit or prepared according to manufacturer's instructions. […]
as §4, §5

| Structure (SMILES) | TGFβ1 expression ([1]; with increasing compound concentrations) | EC50 (TGR5 (GPBAR1) receptor) [nM] | Emax (TGR5 (GPBAR1) receptor) [%] | agonist activity at the TGR5 receptor (TGR5 (GPBAR1) receptor) | SHP expression levels ([2]; compound at its EC90 concentration) | CYP7A1 expression ([3]; compound at the EC50 concentration, versus vehicle control cells) | liver:plasma concentration ratio [4] | EC50 ([5]; FXR reporter cells, 24 h incubation, normalized against EC50 of GW4064, assigned as […] nM) [nM] | Efficacy [5] [%] | TGFβ1 expression levels ([1]; compound at its EC50 concentration) | Ostα mRNA increase in expression ([6]; compound at EC50 concentration) [fold] | Ostα mRNA increase in expression ([6]; compound at EC90 concentration) [fold] | SHP expression levels increased ([2]; compound at EC50 concentration) [times] | SHP expression levels increased ([2]; higher value, printed again as 'EC50 concentration') [times] | CYP7A1 expression ([3]; with increasing concentrations of compound) | EC50 [5] [nM] |
| --- | --- | --- | --- | --- | --- | --- | --- | --- | --- | --- | --- | --- | --- | --- | --- | --- |
| CC[C@H]1[C@@H](O)[C@@H]2[C@H](CC[C@]3(C)[C@@H]([C@H](C)CCC(=O)NS(=O)(=O)c4ccc(OC(F)(F)F)cc4)CC[C@@H]23)[C@@]2(C)CC[C@@H](O)[C@H](F)[C@@H]12 [Compound 14, N-(3α,7α-Dihydroxyl-4β-fluoro-6α-ethyl-5β-cholan-24-oyl)-p-trifluoromethoxy benzene sulfonamide] | decline | > 100000 | 0 | neither Compound 2 nor Compound 14 has agonist activity at the TGR5 receptor | more than doubled | significantly decreased |  |  |  |  |  |  |  |  |  |  |
| CC[C@H]1[C@@H](O)[C@@H]2[C@H](CC[C@]3(C)[C@@H]([C@H](C)CCC(=O)NS(=O)(=O)c4ccc(C(F)(F)F)cc4)CC[C@@H]23)[C@@]2(C)CC[C@@H](O)[C@H](F)[C@@H]12 [Compound 18, N-(3α,7α-Dihydroxyl-4β-fluoro-6α-ethyl-5β-cholan-24-oyl)-4-trifluoromethylphenyl sulfonamide] |  |  |  |  |  |  | highest | 15 | 148 |  |  |  |  |  |  |  |
| CC[C@@H]1[C@@H]2[C@@H](F)[C@H](O)CC[C@]2(C)C2CC[C@@]3(C)C(CCC3[C@H](C)CCNC(=O)NS(=O)(=O)c3ccccc3)C2[C@@H]1O (stereo partly drawn) [Compound 2, N,N′-(3α,7α-Dihydroxyl-4β-fluoro-6α-ethyl-24-nor-5β-cholan-23-yl)-benzene sulfonyl urea] |  | > 100000 | 0 | neither Compound 2 nor Compound 14 has agonist activity at the TGR5 receptor |  |  |  |  | 195 | significant downregulation | 11 | 18 | 1.5 | 2.5 | downregulated | 24 |
